Test results as given in ChEMBL document CHEMBL1128244, “Synthesis, structure-activity relationships, and pharmacological evaluation of pyrrolo[3,2,1-ij]quinoline derivatives: potent histamine and platelet activating factor antagonism and 5-lipoxygenase inhibitory properties. Potential therapeutic application in asthma” (J Med Chem, 1995).
Activity calls are given as the source filed them. The calls are words filed in the database; no cut-off is given here.

What was measured:
[1] = molecular target: T1, Polyunsaturated fatty acid 5-lipoxygenase (Homo sapiens) (UniProt P09917); test: Inhibitory activity uM; conditions: Cavia porcellus; concentration not given here
T1 sequence (whole entry): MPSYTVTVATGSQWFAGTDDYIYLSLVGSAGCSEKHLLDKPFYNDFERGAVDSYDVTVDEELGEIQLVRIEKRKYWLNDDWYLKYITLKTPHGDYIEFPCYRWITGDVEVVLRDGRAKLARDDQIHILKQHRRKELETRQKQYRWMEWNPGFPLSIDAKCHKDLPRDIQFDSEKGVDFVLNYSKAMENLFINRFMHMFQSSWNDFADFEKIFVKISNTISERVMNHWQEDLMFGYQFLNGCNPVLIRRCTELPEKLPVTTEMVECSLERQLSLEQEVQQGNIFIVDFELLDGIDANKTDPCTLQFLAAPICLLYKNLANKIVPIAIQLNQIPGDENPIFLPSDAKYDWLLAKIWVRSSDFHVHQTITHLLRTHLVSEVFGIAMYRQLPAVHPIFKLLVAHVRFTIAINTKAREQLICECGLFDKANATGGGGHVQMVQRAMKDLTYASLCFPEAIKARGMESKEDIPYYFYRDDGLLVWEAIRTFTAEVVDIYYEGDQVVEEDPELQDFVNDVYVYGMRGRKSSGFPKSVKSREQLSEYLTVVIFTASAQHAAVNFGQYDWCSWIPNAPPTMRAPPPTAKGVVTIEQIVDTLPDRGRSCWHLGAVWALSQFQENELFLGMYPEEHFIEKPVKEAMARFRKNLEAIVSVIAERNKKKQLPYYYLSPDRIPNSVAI

Rattus norvegicus [2] = species on record: Rattus norvegicus; test: Inhibition of cutaneous histamine reaction in rats.; type: functional
Cavia porcellus [3] = species on record: Cavia porcellus; test: Ability to inhibit histamine-induced contractions of isolated guinea pig ileum; type: functional
Oryctolagus cuniculus = species on record: Oryctolagus cuniculus; test: Test against PAF-induced aggregation of rabbit platelets in vitro; type: functional
Rattus norvegicus [4] = test: Antiallergic activity in the rat PCA assay following oral administration 1 hour before antigen challenge. Five animals were used in this experiment.; type: functional
Cavia porcellus [5] = test: Ability to inhibit histamine phase of antigen-induced bronchoconstriction in vivo in pulmonary function assays in which Guinea pigs were dosed orally 5 hours prior to test; type: functional; conditions: po
Cavia porcellus [6] = species on record: Cavia porcellus; test: Ability to inhibit histamine-induced contractions of isolated guinea pig ileum at 10e-5 M; type: functional
Cavia porcellus [7] = test: Ability to inhibit histamine phase of antigen-induced bronchoconstriction in vivo in pulmonary function assays in which Guinea pigs were dosed orally 5 hours prior to test at 10 uM/kg; Not active; type: functional, organism-based
Cavia porcellus [8] = test: Ability to inhibit histamine phase of platelet activating factor (PAF)-induced bronchoconstriction in vivo in pulmonary function assays in which Guinea pigs were dosed orally 5 hours prior to test; type: functional; conditions: po

Row | SMILES | inhibition [1] [%] | ED50 (Rattus norvegicus [2]) [µmol/kg] | IC50 (Cavia porcellus [3]) [nM] | IC50 (Oryctolagus cuniculus) [nM] | other results
1 | Cc1ccnc(N2CCN(CCc3c(C)n4c5c(cc(NC(=O)c6ccccc6)cc35)CCC4)CC2)c1 | 40 | 3 | 86 | > 100000 | –
2 | O=C(O)COCCN1CCN(C(c2ccccc2)c2ccc(Cl)cc2)CC1 (stereo not given) [CETIRIZINE] | – | – | 380 | > 100000 | –
3 | CN1CCC(=C2c3ccccc3CC(=O)c3sccc32)CC1 [KETOTIFEN] | – | 0.16 | 6.4 | > 100000 | ED50 (Rattus norvegicus [4]): 0.44 µmol/kg; ED50 (Cavia porcellus [5]): 0.31 µmol/kg
4 | Cc1ccnc(N2CCN(CCc3c(C)n4c5c(cc(C(O)C(C)C)cc35)CCC4)CC2)c1 (stereo not given) | 8 | 2.6 | 110 | 4200 | –
5 | Cc1c(CCN2CCN(c3ccccn3)CC2)c2cccc3c2n1CCC3 | – | – | 65 | 40000 | –
6 | Cc1c(CCN2CCN(c3ccc(Br)cn3)CC2)c2cccc3c2n1CCC3 | – | – | 990 | > 100000 | –
7 | CCCCC1CCc2cc(C(=O)C(C)C)cc3c(CCN4CCN(c5cc(C)ccn5)CC4)c(C)n1c23 (stereo not given) | 50 | 3.3 | 400 | 2000 | –
8 | COc1ccc(N2CCN(CCc3c(C)n4c5c(cccc35)CCC4)CC2)cc1 | – | – | – | 82000 | inhibition at 10 µM (Cavia porcellus [6]): 9%
9 | Cc1c(CC(=O)N2CCN(c3ccc(F)cc3)CC2)c2cccc3c2n1CCC3 | – | – | 7100 | 44000 | –
10 | CC(=O)Oc1cc2c3c(c1)c(CCN1CCN(c4cc(C)ccn4)CC1)c(C)n3CCC2 | – | – | 23 | – | –
11 | Cc1ccnc(N2CCN(CCc3c(C)n4c5c(cc(CC6CCCCC6)cc35)CCC4)CC2)c1 | – | – | – | 39000 | inhibition at 10 µM (Cavia porcellus [6]): 50%
12 | COc1cc2c3c(c1)c(CCN1CCN(c4cc(C)ccn4)CC1)c(C)n3CCC2 | 15 | 0.7 | 30 | 6200 | –
13 | Cc1ccnc(N2CCN(CCc3c(C)n4c5c(cc(CC(C)C)cc35)CCC4)CC2)c1 | 20 | 5.1 | 800 | 4300 | –
14 | CC(C)=Cc1cc2c3c(c1)c(CCN1CCN(c4cc(C)ccn4)CC1)c(C)n3CCC2 | 41 | 4.9 | 140 | 22000 | –
15 | Cc1ccc(N2CCN(CCc3c(C)n4c5c(cccc35)CCC4)CC2)nc1 | – | – | 180 | > 100000 | –
16 | Cc1cccnc1N1CCN(CCc2c(C)n3c4c(cccc24)CCC3)CC1 | – | – | – | 67000 | inhibition at 10 µM (Cavia porcellus [6]): 7%
17 | Cc1ccnc(N2CCN(CCc3c(C)n4c5c(cccc35)CCC4C3CCCCC3)CC2)c1 (stereo not given) | – | – | – | 25000 | inhibition at 10 µM (Cavia porcellus [6]): 50%
18 | Cc1ccnc(N2CCN(CCc3c(C)n4c5c(cc(C(=O)/C=C/c6ccccc6)cc35)CCC4)CC2)c1 | – | – | 190 | – | –
19 | CC(c1cc2ccccc2s1)N(O)C(N)=O (stereo not given) | – | – | – | – | ED50 (Cavia porcellus [7]): inactive
20 | CCCCC1CCc2cc(OC)cc3c(CCN4CCN(c5cc(C)ccn5)CC4)c(C)n1c23 (stereo not given) | 50 | 0.9 | 340 | 1400 | –
21 | Cc1ccnc(N2CCN(CCc3c(Cc4ccccc4)n4c5c(cccc35)CCC4)CC2)c1 | – | – | 2900 | 22000 | –
22 | Cc1ccnc(N2CCN(C(=O)Cc3c(C)n4c5c(cccc35)CCC4)CC2)c1 | – | – | 5900 | 9600 | –
23 | CCCCC1CCc2cc(O)cc3c(CCN4CCN(c5cc(C)ccn5)CC4)c(C)n1c23 (stereo not given) | 100 | 2.8 | 260 | 2000 | ED50 (Rattus norvegicus [4]): 0.9 µmol/kg; ED50 (Cavia porcellus [8]): 2.1 µmol/kg; ED50 (Cavia porcellus [5]): 1.9 µmol/kg
24 | Cc1ccnc(N2CCN(CCc3c(-c4ccccc4)n4c5c(cccc35)CCC4)CC2)c1 | – | – | – | 4200 | inhibition at 10 µM (Cavia porcellus [6]): 24%
25 | Cc1ccnc(N2CCN(CCc3c(C)n4c5c(cc(Cc6ccccc6)cc35)CCC4)CC2)c1 | – | – | 2400 | 2800 | –
26 | Cc1ccnc(N2CCN(CCc3c(C)n4c5c(cc(O)cc35)CCC4)CC2)c1 | – | 6 | 21 | 39000 | –
27 | Cc1ccnc(N2CCN(CCc3c(C)n4c5c(cc(C(=O)C(C)(C)C)cc35)CCC4)CC2)c1 | 22 | 3.3 | 89 | 5900 | –
28 | Cc1ccc(N2CCN(C(=O)Cc3c(C)n4c5c(cccc35)CCC4)CC2)nc1 | – | – | 8300 | 42000 | –
29 | Cc1ccnc(N2CCN(CCCc3c(C)n4c5c(cccc35)CCC4)CC2)c1 | – | – | 1800 | 32000 | –
